# Assay results published in a melting point compilation (Tetko et al.; mined from patent text by program, amines drawn as free bases though some values may be those of a salt).
row,melting point,SMILES
1,152 °C,CCOc1ccc2ccc(NC(=O)c3ccc(OC)cc3)nc2n1
2,103 to 105 °C,COC(=O)C(=O)c1ccc(OCCOc2ccc(Cl)cc2)cc1
3,82 to 83 °C,COC(=O)NNCc1ccc(Cl)cc1Cl
4,247 °C,COc1ccc(C=CC(=O)c2ccc(O)c(CC(=O)O)c2)cc1
5,115 to 118 °C,O=[N+]([O-])c1cc(Cc2ccc[nH]2)cc(O)c1O
6,112 to 114 °C,O=C(c1ccc([N+](=O)[O-])cc1Cl)N1CCCCc2ccccc21
7,164 to 165 °C,CC1=CC(=O)C(O)=CC1=CC=Cc1ccccc1
8,67 to 70 °C,COC(=O)c1cccc([N+](=O)[O-])c1CBr
9,130 to 134 °C,O=C(NS(=O)(=O)c1ncccc1C(F)(F)F)Oc1ccccc1
10,101 to 105 °C,CC(=O)C(=Cc1cc([N+](=O)[O-])cc([N+](=O)[O-])c1)C(C)=O
11,132 to 138 °C,O=C(CC1(c2ccccc2)CC1)C(=O)Nc1ccc2c(c1)COC2=O
12,117 to 119 °C,[O-][N+](=Cc1ccccn1)c1cccc(CO)c1
13,125 °C,COc1cccc(C(=O)N[C@H]2C[C@@H](c3cc(NC(=O)Cc4cccc5ccccc45)n[nH]3)C2)c1
14,172 to 173 °C,O=C(NCC1(c2ccccc2)CCCCC1)Nc1ccc(Br)cc1
15,169 to 170 °C,CNc1ccc2cc(Br)ccc2c1[N+](=O)[O-]
16,67 to 69 °C,CCNC(=O)n1nc(Oc2ccc([N+](=O)[O-])c(C)c2)cc1C
17,110 to 111 °C,COc1ccc(Oc2ccc(C(=O)CC(SC(C)=O)C(=O)O)cc2)cc1 (stereo not given)

# Continued, compound first:
row,SMILES,melting point
1,CCC(C)C(NC(=O)OC)C(=O)NN(Cc1ccc(-c2nccs2)cc1)CC(O)C(Cc1ccccc1)NC(=O)C(NC(=O)OC)C(C)C (stereo not given),227 to 229 °C
2,Cn1nc(-c2nc(S(C)(=O)=O)c(N)nc2-c2ccccc2)ccc1=O,231 to 233 °C
3,COc1ccc(NC(=O)c2ccc(N)cc2NC(=O)c2ccc(C(C)(C)C)cc2)cc1,137 to 140 °C
4,CS(=O)(=S)OCc1c(F)c(F)c(F)c(F)c1F (stereo not given),64.2 to 64.7 °C
5,Cc1cc(-c2cc(C(F)(F)F)n3ncc(C(=O)Nc4cccc(S(=O)(=O)NC5CC5)c4)c3n2)ccc1C(F)(F)F,201 °C
6,CC(C)(C)OC(=O)NC(CCOP(=O)(Oc1ccccc1)Oc1ccccc1)C(=O)OCc1ccccc1 (racemic),63.5 to 64 °C
7,CC(=O)NC[C@H]1CN(c2ccc(C3CCN(C(=O)c4ccno4)CC3)c(F)c2)C(=O)O1,290 to 292 °C
8,N#Cc1ccccc1OCCCN1CCC(NC(=O)Cc2ccccc2)CC1,105 to 107 °C
9,O=C1N(Cc2ccc(NC=NO)nc2)c2ccccc2C12COc1cc3c(cc12)OCCO3 (stereo not given),231 to 232 °C
10,Cc1ccc(-c2ccc(S(C)(=O)=O)cc2)n1-c1ccc(-c2ccc[nH]2)cc1,225 to 227 °C
11,N#Cc1ccccc1CCC(=O)c1c(O)c2cccnc2n(-c2ccccc2)c1=O,226 to 227 °C
12,CCCCNC(=O)N1CCC(c2nc(-c3ccc(-c4ccccc4)cc3)c[nH]2)CC1,99 to 100 °C
13,CCc1c(NC(=O)c2cc(S(C)(=O)=O)ccc2OCC(C)C)c(C(N)=O)nn1Cc1nccn1C,201 to 206 °C
14,Cc1cccc(-c2nc(NCc3ccc(Cl)cc3)c3ccccc3n2)n1,210 to 212 °C
15,CC(=O)N1CCC1CC(=O)O (stereo not given),148 to 150 °C
16,COc1ccc(-c2coc(-c3ccc(C(=O)O)cc3)n2)cc1,286 to 287 °C
17,CC1(C)CC(Cl)C(=Cc2ccc(F)cc2)C1=O (stereo not given),69 °C

row,SMILES,melting point
1,CC1(C)OC(=C(C#N)C#N)C(C#N)=C1c1ccc(F)cc1,263 °C
2,Cc1cn(-c2ccc(NC(=O)c3ccc(C)c(C#Cc4ccc(NC5CC5)nn4)c3)cc2C(F)(F)F)cn1,125 to 126 °C
3,O=C(COc1ccc(C(=O)C=CC(=O)N2CCCCC2)c(O)c1)Nc1nc2ccccc2s1,207 to 210 °C
4,CC1(C)CCC(Br)(C(Br)c2ccc(Cl)cc2)C(=O)C1 (stereo not given),114 to 115 °C
5,Fc1ccc(C2(c3ccc(F)cc3)CNC(c3cnccn3)=N2)cc1,144 to 146 °C
6,CC(C)(CO)NS(=O)(=O)c1cccc(NC(=O)c2cnn3c(C4CC4)cc(-c4ccc(C(F)(F)F)cc4)nc23)c1,228 to 230 °C
7,CC(C)c1ccc(N(Cc2ccc(F)cc2)C(=O)Nc2c(C(C)C)cccc2C(C)C)cc1,80 °C
8,CNc1nc(O)nc2c(Cl)cc(OC)c(OC)c12,219 to 221 °C
9,CC(=O)OC(C)c1ccc(C=C(C)c2ccc3c(c2)C(C)(C)CCC3(C)C)cc1 (stereo not given),85 to 86 °C
10,Cc1ccc(N=C(N(Cc2ccccc2)C2CCCCC2)N(Cc2ccccc2)C2CCCCC2)cc1,128 to 130 °C
11,COc1cc(C(=O)O)ccc1Cc1cccc2ccc(CCCC(=O)N3CCOCC3)cc12,160 to 161 °C
12,CCCCCCCCCCCCCCCCN(C(=O)C(F)(F)F)c1ccc(C(=O)Nc2ccc(C(=O)OCC)cc2)cc1,91 to 93 °C
13,Cc1ccc(CCCOc2c(C)cc(-c3nnn(C)n3)cc2C)nn1,114 to 115 °C
14,C=CCc1nc(SC)nc2ccccc12,133 to 135 °C
15,CCN1CCC(O)(c2ccc(F)c(Cl)c2)C1 (stereo not given),157 to 158 °C
16,COc1ccccc1-n1nnc2cc(F)c(N)cc21,128 to 129 °C
